Values quoted from earlier work as cited in patent US20090123919A1, “Diagnosing Pathological Conditions Using Interallelic Epigenetic Variations” (Allelis Diagnostics Ltd., priority 2005, published 2009).

Tested on: aneuploid genotypes
Conditions: in the presence of 5-azacytidine, an inhibitor of DNA methylation

SMILES: Nc1ncn([C@@H]2O[C@H](CO)[C@@H](O)[C@H]2O)c(=O)n1 [5-azacytidine]
- loss of the inherent temporal order of allelic replication: can be reversed
